Assay results reported in patent US20210161868A1, “ANTI-INFLAMMATORY THERAPY IN ARRHYTHMOGENIC CARDIOMYOPATHY (ACM)” (Beth Israel Deaconess Medical Center, Inc., priority 2018, published 2021).

Tested on: hearts of Dsg2^mut/mut mice
Assay: Cytokine arrays in mouse hearts
Format: in vivo
Method: Three cohorts of mice at 8 weeks of age were anesthetized and implanted with subcutaneous osmotic mini-pumps (Alzet, Model 1004). These included: 1) Dsg2^mut/mut mice with pumps containing 50 μg/μL Bay11-7082 in a vehicle of 65% DMSO, 15% ethanol, and 20% saline; 2) Dsg2^mut/mut mice with pumps containing an equivalent volume of vehicle; and 3) wildtype mice with pumps containing vehicle. Mice in cohort 1 received 5 mg/kg/day of Bay11-7082 by continuous infusion; those in cohorts 2 and 3 received an equivalent volume of vehicle each day for 4 weeks. At 12 weeks of age, mice were re-anesthetized and new Alzet pumps were implanted for an additional 4 weeks of treatment.
Myocardium from mice was lyzed in RIPA buffer and cardiac myocytes from patient hiPSCs were lysed in TRIzol, and protein in lysates was quantified by standard BCA protein assay. Mouse (R&D Systems, Cat. No. ARY028) and Human (R&D Systems, Cat. No. ARY022B) Proteome Profiler XL Cytokine Arrays were blocked at room temperature for 1 hour before being incubated overnight at 4° C. with 200 μg of myocardial protein in blocking buffer supplied by manufacturer. Additional arrays were incubated overnight at 4° C. with 200 μl of hiPSC-cardiac myocyte culture medium according to the manufacturer's protocol for cell supernatants. Following overnight incubation, arrays were washed four times (10 minutes/wash), incubated at room temperature for 1 hour with Antibody Detection Cocktail, washed an additional four times (10 minutes/wash), then incubated with 1:2,000 Streptavidin-HRP in blocking buffer for 30 minutes at room temperature. Arrays were then washed four times and chemiluminescence was performed using the Chemi Reagent Mix included in the assay kits.
Data are presented as mean±SEM. Specific n-values are inset within each figure legend or table. P<0.05 was deemed statistically significant. As appropriate, associations between continuous dependent variables were tested using Student's paired/unpaired t-tests (binary independent variables) or one-way ANOVA (two or more variables). In the in vivo studies involving Dsg2^mut/mut mice, correlations between (i) ejection fraction and the amounts of myocardial fibrosis and apoptosis, (ii) cytokine expression levels and ejection fraction, and (iii) the levels of each individual cytokine against all other cytokines were made using Pearson's r analysis. Changes in cytokine levels in WT vs. Dsg2^mut/mut and/or untreated vs. Bay 11-7082-treated Dsg2^mut/mut mice were analyzed by two-way ANOVA with Tukey's post-hoc testing. The levels of any cytokines showing a significant change were then correlated with ejection fraction in each animal using Pearson's r analysis. In addition, the levels of all cytokines (n=111) were analyzed in a Pearson's correlation matrix table to correlate the expression level of each individual cytokine with all other cytokines.

[1] = Dsg2^mut/mut (Bay11-7082) vs Dsg2^mut/mut
[2] = Dsg2^mut/mut (Bay11-7082) vs WT
[3] = Dsg2^mut/mut mice with pumps containing 50 μg/μL Bay11-7082

Structure (SMILES): Cc1ccc(S(=O)(=O)/C=C/C#N)cc1 [Bay 11-7082]
- Adiponectin expression [1]: <1
- Amphiregulin expression [1]: <1
- Angiopoietin-1 expression [1]: <1
- Angiopoietin-2 expression [1]: 1-2
- Angiopoietin-like 3 expression [1]: <1
- BAFF/BLyS/TNFSF13B expression [1]: <1
- C1qR1/CD93 expression [1]: <1
- C-Reactive Protein/CRP expression [1]: <1
- CCL2/JE/MCP-1 expression [1]: <1
- CCL3/CCL4/MIP-1a/B expression [1]: <1
- CCL5/RANTES expression [1]: <1
- CCL6/C10 expression [1]: <1
- CCL17/TARC expression [1]: <1
- CCL19/MIP-3B expression [1]: <1
- CCL20/MIP-3a expression [1]: <1
- CCL21/6Ckine expression [1]: <1
- CCL22/MDC expression [1]: <1
- CD14 expression [1]: 1-2
- CD40/TNFRSF5 expression [1]: <1
- CD160 expression [1]: <1
- CX3CL1/Fractalkine expression [1]: <1
- CXCL9/MIG expression [1]: <1
- CXCL13/BLC/BCA-1 expression [1]: <1
- CXCL16 expression [1]: <1
- Chemerin expression [1]: <1
- Chitinase 3-like 1 expression [1]: <1
- Coagulation Factor III/Tissue Factor expression [1]: <1
- Complement Component C5/C5a expression [1]: <1
- Complement Factor D expression [1]: <1
- Cystatin C expression [1]: <1
- DKK-1 expression [1]: <1
- DPPIV/CD26 expression [1]: <1
- E-Selectin/CD62E expression [1]: <1
- EGF expression [1]: <1
- Endoglin/CD105 expression [1]: <1
- Endostatin expression [1]: <1
- Eotaxin (CCL11) expression [1]: <1
- FGF acidic expression [1]: <1
- FGF-21 expression [1]: <1
- FLt-3 Ligand expression [1]: <1
- Fetuin A/AHSG expression [1]: <1
- G-CSF expression [1]: <1
- GDF-15 expression [1]: <1
- GM-CSF expression [1]: <1
- Gas 6 expression [1]: <1
- HGF expression [1]: <1
- I-TAC (Cxcl11) expression [1]: <1
- IFN-y expression [1]: <1
- IGFBP-1 expression [1]: <1
- IGFBP-2 expression [1]: <1
- IGFBP-3 expression [1]: <1
- IGFBP-5 expression [1]: <1
- IGFBP-6 expression [1]: <1
- IL-1a (IL-1F1) expression [1]: <1
- IL-1ra (IL-1F3) expression [1]: <1
- IL-1β (IL-1F2) expression [1]: <1
- IL-2 expression [1]: <1
- IL-3 expression [1]: <1
- IL-4 expression [1]: <1
- IL-5 expression [1]: <1
- IL-6 expression [1]: <1
- IL-7 expression [1]: <1
- IL-10 expression [1]: <1
- IL-11 expression [1]: <1
- IL-12 p40 expression [1]: <1
- IL-13 expression [1]: <1
- IL-15 expression [1]: <1
- IL-17a expression [1]: <1
- IL-22 expression [1]: <1
- IL-23 expression [1]: <1
- IL-27 p28 expression [1]: <1
- IL-28A/B expression [1]: <1
- IL-33 expression [1]: <1
- IP-10 (CXL10/CRG-2) expression [1]: <1
- KC (CXCL1) expression [1]: <1
- LDL R expression [1]: 1-2
- LIF expression [1]: <1
- LIX expression [1]: <1
- Leptin expression [1]: <1
- Lipocalin-2/NGAL expression [1]: <1
- M-CSF expression [1]: 1-2
- MCP-5 (CCL12) expression [1]: <1
- MIP-2 (CXCL2) expression [1]: <1
- MMP-2 expression [1]: 1-2
- MMP-3 expression [1]: 1-2
- MMP-9 expression [1]: <1
- Myeloperoxidase expression [1]: <1
- Osteopontin (OPN) expression [1]: <1
- Osteoprotegerin/TNFRSF11B expression [1]: <1
- P-Selectin/CD62P expression [1]: <1
- PD-EGF/Thymidine phosphorylase expression [1]: <1
- PDGF-BB expression [1]: <1
- Pentraxin 2/SAP expression [1]: <1
- Pentraxin 3/TSG-14 expression [1]: <1
- Periostin/OSF-2 expression [1]: <1
- Pref-1/DLK-1/FA1 expression [1]: <1
- Proliferin expression [1]: <1
- Proprotein Convertase 9/PCSK9 expression [1]: 1-2
- RAGE expression [1]: <1
- RBP4 expression [1]: <1
- Reg3G expression [1]: <1
- Resistin expression [1]: <1
- Serpin E1/PAI-1 expression [1]: <1
- Serpin F1/PEDF expression [1]: <1
- TIM-1/KIM-1/HAVCR expression [1]: 1-2
- TNF-α expression [1]: <1
- Thrombopoeitin expression [1]: 1-2
- VCAM-1/CD106 expression [1]: 1-2
- VEGF expression [1]: 1-2
- WISP-1/CCN4 expression [1]: <1
- sICAM-1 (CD54) expression [1]: <1
- Adiponectin expression [2]: <1
- Amphiregulin expression [2]: <1
- Angiopoietin-1 expression [2]: <1
- Angiopoietin-2 expression [2]: <1
- Angiopoietin-like 3 expression [2]: <1
- BAFF/BLyS/TNFSF13B expression [2]: <1
- C1qR1/CD93 expression [2]: <1
- C-Reactive Protein/CRP expression [2]: <1
- CCL2/JE/MCP-1 expression [2]: <1
- CCL3/CCL4/MIP-1a/B expression [2]: <1
- CCL5/RANTES expression [2]: <1
- CCL6/C10 expression [2]: <1
- CCL17/TARC expression [2]: <1
- CCL19/MIP-3B expression [2]: <1
- CCL20/MIP-3a expression [2]: <1
- CCL21/6Ckine expression [2]: <1
- CCL22/MDC expression [2]: <1
- CD14 expression [2]: <1
- CD40/TNFRSF5 expression [2]: <1
- CD160 expression [2]: <1
- CX3CL1/Fractalkine expression [2]: <1
- CXCL9/MIG expression [2]: <1
- CXCL13/BLC/BCA-1 expression [2]: 2-4
- CXCL16 expression [2]: <1
- Chemerin expression [2]: <1
- Chitinase 3-like 1 expression [2]: <1
- Coagulation Factor III/Tissue Factor expression [2]: <1
- Complement Component C5/C5a expression [2]: <1
- Complement Factor D expression [2]: <1
- Cystatin C expression [2]: <1
- DKK-1 expression [2]: <1
- DPPIV/CD26 expression [2]: 1-2
- E-Selectin/CD62E expression [2]: <1
- EGF expression [2]: 1-2
- Endoglin/CD105 expression [2]: <1
- Endostatin expression [2]: <1
- Eotaxin (CCL11) expression [2]: <1
- FGF acidic expression [2]: <1
- FGF-21 expression [2]: <1
- FLt-3 Ligand expression [2]: <1
- Fetuin A/AHSG expression [2]: <1
- G-CSF expression [2]: 1-2
- GDF-15 expression [2]: <1
- GM-CSF expression [2]: <1
- Gas 6 expression [2]: <1
- HGF expression [2]: 4-6
- I-TAC (Cxcl11) expression [2]: <1
- IFN-y expression [2]: 1-2
- IGFBP-1 expression [2]: 1-2
- IGFBP-2 expression [2]: <1
- IGFBP-3 expression [2]: <1
- IGFBP-5 expression [2]: <1
- IGFBP-6 expression [2]: <1
- IL-1a (IL-1F1) expression [2]: <1
- IL-1ra (IL-1F3) expression [2]: 1-2
- IL-1β (IL-1F2) expression [2]: 6-10
- IL-2 expression [2]: <1
- IL-3 expression [2]: <1
- IL-4 expression [2]: <1
- IL-5 expression [2]: <1
- IL-6 expression [2]: <1
- IL-7 expression [2]: <1
- IL-10 expression [2]: <1
- IL-11 expression [2]: <1
- IL-12 p40 expression [2]: 1-2
- IL-13 expression [2]: 1-2
- IL-15 expression [2]: 2-4
- IL-17a expression [2]: <1
- IL-22 expression [2]: <1
- IL-23 expression [2]: <1
- IL-27 p28 expression [2]: <1
- IL-28A/B expression [2]: 1-2
- IL-33 expression [2]: 2-4
- IP-10 (CXL10/CRG-2) expression [2]: <1
- KC (CXCL1) expression [2]: <1
- LDL R expression [2]: 1-2
- LIF expression [2]: <1
- LIX expression [2]: >10
- Leptin expression [2]: 1-2
- Lipocalin-2/NGAL expression [2]: <1
- M-CSF expression [2]: >20
- MCP-5 (CCL12) expression [2]: <1
- MIP-2 (CXCL2) expression [2]: <1
- MMP-2 expression [2]: 4-6
- MMP-3 expression [2]: <1
- MMP-9 expression [2]: <1
- Myeloperoxidase expression [2]: 2-4
- Osteopontin (OPN) expression [2]: 4-6
- Osteoprotegerin/TNFRSF11B expression [2]: <1
- P-Selectin/CD62P expression [2]: >10
- PD-EGF/Thymidine phosphorylase expression [2]: <1
- PDGF-BB expression [2]: 1-2
- Pentraxin 2/SAP expression [2]: 1-2
- Pentraxin 3/TSG-14 expression [2]: <1
- Periostin/OSF-2 expression [2]: <1
- Pref-1/DLK-1/FA1 expression [2]: 6-10
- Proliferin expression [2]: 6-10
- Proprotein Convertase 9/PCSK9 expression [2]: <1
- RAGE expression [2]: <1
- RBP4 expression [2]: 1-2
- Reg3G expression [2]: 6-10
- Resistin expression [2]: 2-4
- Serpin E1/PAI-1 expression [2]: 6-10
- Serpin F1/PEDF expression [2]: <1
- TIM-1/KIM-1/HAVCR expression [2]: <1
- TNF-α expression [2]: 1-2
- Thrombopoeitin expression [2]: <1
- VCAM-1/CD106 expression [2]: 6-10
- VEGF expression [2]: <1
- WISP-1/CCN4 expression [2]: <1
- sICAM-1 (CD54) expression [2]: 1-2
- LIX (CXCL5) level [3]: markedly reduced
- OPN expression [3]: reduced
- increased expression of cytokines in Dsg2^mut/mut hearts (in most, but not all, cases): blunted or fully normalized
